In patent US4229584A, “Ureylenebis(anionic substituted phenylene carbonyl)imino naphthalene sulfonic acids and naphthalene carboxylic acids and their salts” (American Cyanamid Company, priority 1978, dated 1980):
Counter-ions that a name gives are not always drawn. Like-named read-outs stand apart in the source and are kept apart here.

Tests used:
[1] = tested on: late components of human complement (C3-C9); test: Test, Code 035 (C3-C9 inhibitor): lysis of EAC 142 by late components of human complement; assay type: cell-based; conditions: activity in wells, twofold serial dilution; higher well number indicates higher activity
Text: (§1) An active inhibitor protects C2 from C1 and C4; (ii) Test, Code 035 (C3-C9 inhibitor)--This test determines the ability of the late components of human complement (C3-C9) to lyse EAC 142 in the presence of appropriate dilutions of the test compound. An active inhibitor protects EAC 142 from lysis by human C3-C9; (iii) Test, Code 036 (C-Shunt inhibitor)--In this test human erythrocytes rendered fragile are lysed in autologous serum via the shunt pathway activated by cobra venom factor in the presence of appropriate dilutions of the test compound. Inhibition of the shunt pathway results in failure of lysis; (iv) Forssman Vasculitis Test--Here, the well known complement dependent lesion, Forssman vasculitis, is produced in guinea pigs by intradermal injection of rabbit anti-Forssman antiserum. The lesion is measured in terms of diameter, edema and hemorrhage and the extent to which a combined index of these is inhibited by prior intraperitoneal injection of the test compound at 200 mg/kg is then reported, unless otherwise stated; (v) Forssman Shock Test--Lethal shock is produced in guinea pigs by an i.v. injection of anti-Forssman antiserum and the harmonic mean death time of treated guinea pigs is compared with that of simultaneous controls; (vi) Complement Level Reduction Test--In this test, the above dosed guinea pigs, or others, are bled for serum and the complement level is determined in undiluted serum by the capillary tube method of U.S. Pat. No. 3,876,376 and compared to undosed control guinea pigs; and (vii) Cap 50 Test--Here, appropriate amounts of the test compound are added to a pool of guinea pig serum in vitro, after which the undiluted serum capillary tube assay referred to above is run. The concentration of compound inhibiting 50% is reported.
(§2) **Activity in wells, a serial dilution assay. Higher well number indicate
(§3) higher activity. The serial dilutions are twofold.

human C1 = biological target: T1, human C1 (Homo sapiens, UniProt P09871); test: Test, Code 026 (C1 inhibitor): protection of fluid phase human C2 from activated human C1; assay type: biochemical; conditions: activity in wells, twofold serial dilution; higher well number indicates higher activity
T1 construct: substrate fluid phase human C2, in presence of C4
Text: as §1, §2, §3

shunt pathway = test: Test, Code 036 (C-Shunt inhibitor): lysis of human erythrocytes in autologous serum via shunt pathway activated by cobra venom factor; assay type: cell-based; conditions: activity in wells, twofold serial dilution; higher well number indicates higher activity
Text: as §1, §2, §3

whole complement = test: In vivo complement inhibition in guinea pigs (whole complement of serum, capillary tube assay); design: species or system guinea pig; conditions: for change in vivo at 200 mg/kg: Cavia porcellus, ip
Text: as §1
With reference to Table I, guinea pigs weighing about 300 g were dosed intravenously (i.v.) or intraperitoneally (i.p.) with 200 mg/kg of the test compound dissolved in saline and adjusted to pH 7-8. […] The serum was tested for whole complement using the capillary tube assay. Percent inhibition was calculated by comparison with simultaneous controls. The results appear in Table I together with results of tests, Code 026, 035, 036, Cap 50, percent inhibition and Forssman shock.

complement system = conditions: cited from earlier work; for anticomplementary effect: British Journal of Experimental Pathology, 33, 327-339 (1952)
[2] = The New England Journal of Medicine, 286, 808-812 (1972); cited from earlier work
[3] = 0.5 h, read-out: In Vivo Activity (Guinea Pig) % Inhibition Intraperitoneal 30 mins.
[4] = 1 h, read-out: In Vivo Activity (Guinea Pig) % Inhibition Intraperitoneal 60 mins.
[5] = 2 h, read-out: In Vivo Activity (Guinea Pig) % Inhibition Intraperitoneal 120 mins.
[6] = 0.5 h, intraperitoneal, 200 mg/kg, 30 mins., read-out: In Vivo Activity (Guinea Pig) % Inhibition Intraperitoneal 30 mins.
[7] = 1 h, intraperitoneal, 200 mg/kg, 60 mins., read-out: In Vivo Activity (Guinea Pig) % Inhibition Intraperitoneal 60 mins.
[8] = 2 h, intraperitoneal, 200 mg/kg, 120 mins., read-out: In Vivo Activity (Guinea Pig) % Inhibition Intraperitoneal 120 mins.

T1 sequence (P09871 16-688): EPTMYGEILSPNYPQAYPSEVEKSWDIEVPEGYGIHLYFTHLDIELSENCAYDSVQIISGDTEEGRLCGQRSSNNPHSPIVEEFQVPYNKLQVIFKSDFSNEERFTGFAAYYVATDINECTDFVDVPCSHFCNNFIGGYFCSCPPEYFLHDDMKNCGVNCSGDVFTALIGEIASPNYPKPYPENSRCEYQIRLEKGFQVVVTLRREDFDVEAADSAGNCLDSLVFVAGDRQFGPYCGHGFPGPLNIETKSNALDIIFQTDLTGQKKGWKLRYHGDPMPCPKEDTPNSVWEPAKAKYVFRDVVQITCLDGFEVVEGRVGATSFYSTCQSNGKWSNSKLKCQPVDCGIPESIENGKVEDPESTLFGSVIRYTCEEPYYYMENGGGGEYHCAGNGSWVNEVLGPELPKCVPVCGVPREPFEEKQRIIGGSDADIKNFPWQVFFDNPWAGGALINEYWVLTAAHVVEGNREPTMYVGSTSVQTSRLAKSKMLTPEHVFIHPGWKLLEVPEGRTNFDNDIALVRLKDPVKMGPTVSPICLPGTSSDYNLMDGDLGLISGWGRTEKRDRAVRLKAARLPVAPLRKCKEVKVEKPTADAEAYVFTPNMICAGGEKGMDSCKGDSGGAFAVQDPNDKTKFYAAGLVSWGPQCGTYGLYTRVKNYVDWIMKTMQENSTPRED
T1 sequence (P00736 18-705 partner): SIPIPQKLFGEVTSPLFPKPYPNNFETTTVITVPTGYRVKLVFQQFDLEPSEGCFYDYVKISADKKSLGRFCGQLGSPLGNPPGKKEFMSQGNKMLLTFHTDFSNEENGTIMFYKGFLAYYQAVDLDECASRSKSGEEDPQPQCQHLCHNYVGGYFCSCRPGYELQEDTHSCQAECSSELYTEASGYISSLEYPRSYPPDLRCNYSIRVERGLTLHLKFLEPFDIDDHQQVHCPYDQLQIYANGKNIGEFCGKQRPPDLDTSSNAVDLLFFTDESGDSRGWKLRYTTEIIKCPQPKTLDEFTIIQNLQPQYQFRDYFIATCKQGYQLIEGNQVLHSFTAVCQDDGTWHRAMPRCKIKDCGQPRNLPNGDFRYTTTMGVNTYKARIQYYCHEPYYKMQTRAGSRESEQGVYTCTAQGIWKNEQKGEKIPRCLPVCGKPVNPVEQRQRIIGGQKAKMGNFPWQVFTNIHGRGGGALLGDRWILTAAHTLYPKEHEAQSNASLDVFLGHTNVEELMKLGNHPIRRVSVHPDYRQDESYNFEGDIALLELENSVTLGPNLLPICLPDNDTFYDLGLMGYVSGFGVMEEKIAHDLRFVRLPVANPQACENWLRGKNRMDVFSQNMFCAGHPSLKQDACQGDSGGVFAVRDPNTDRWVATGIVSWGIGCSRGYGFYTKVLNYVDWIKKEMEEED
T1 sequence (P02745 23-245 partner): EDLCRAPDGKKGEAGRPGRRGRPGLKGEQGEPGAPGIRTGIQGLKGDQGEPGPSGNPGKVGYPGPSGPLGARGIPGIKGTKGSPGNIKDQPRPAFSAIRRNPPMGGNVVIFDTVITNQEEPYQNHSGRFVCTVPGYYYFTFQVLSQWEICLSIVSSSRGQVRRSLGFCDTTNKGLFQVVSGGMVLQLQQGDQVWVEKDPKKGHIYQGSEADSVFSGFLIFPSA
T1 sequence (P02746 28-253 partner): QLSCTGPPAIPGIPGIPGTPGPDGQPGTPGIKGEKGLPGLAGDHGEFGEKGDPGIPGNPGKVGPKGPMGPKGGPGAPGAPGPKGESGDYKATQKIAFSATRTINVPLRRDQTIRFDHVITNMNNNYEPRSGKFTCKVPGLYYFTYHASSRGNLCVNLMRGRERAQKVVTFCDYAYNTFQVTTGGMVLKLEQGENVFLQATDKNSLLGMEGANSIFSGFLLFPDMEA
T1 sequence (P02747 29-245 partner): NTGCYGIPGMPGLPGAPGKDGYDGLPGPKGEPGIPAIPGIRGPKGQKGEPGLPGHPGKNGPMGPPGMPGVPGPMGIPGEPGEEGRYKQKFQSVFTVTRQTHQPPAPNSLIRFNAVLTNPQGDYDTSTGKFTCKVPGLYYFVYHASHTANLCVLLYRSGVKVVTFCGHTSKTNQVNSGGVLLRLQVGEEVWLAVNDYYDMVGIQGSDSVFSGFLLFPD

| Compound | C-Late 035* Wells [1] | C1 026* Wells (human C1) | Shunt Inhibition 036* Wells (shunt pathway) | change in vivo at 200 mg/kg (whole complement; [6]) [%] | change in vivo at 200 mg/kg (whole complement; [7]) [%] | change in vivo at 200 mg/kg (whole complement; [8]) [%] | also measured |
| --- | --- | --- | --- | --- | --- | --- | --- |
| O=C(Nc1ccc(C(=O)Nc2ccc(S(=O)(=O)[O-])c3cccc(S(=O)(=O)O)c23)c(S(=O)(=O)[O-])c1)Nc1ccc(C(=O)Nc2ccc(S(=O)(=O)O)c3cccc(S(=O)(=O)O)c23)c(S(=O)(=O)[O-])c1.[Na+].[Na+].[Na+] [4,4'-{Ureylenebis[(2-sulfo-4,1-phenylenecarbonyl)imino]}-di-1,5-naphthalenedisulfonic acid trisodium salt] | N | +7 Wells | +1 Wells |  |  |  | change in vivo at 200 mg/kg (whole complement; [3]): -10%; change in vivo at 200 mg/kg (whole complement; [4]): 6%; change in vivo at 200 mg/kg (whole complement; [5]): -6% |
| O=C(Nc1ccc(C(=O)Nc2ccc(S(=O)(=O)[O-])c3ccc(S(=O)(=O)[O-])cc23)c(S(=O)(=O)[O-])c1)Nc1ccc(C(=O)Nc2ccc(S(=O)(=O)[O-])c3ccc(S(=O)(=O)[O-])cc23)c(S(=O)(=O)[O-])c1.[Na+].[Na+].[Na+].[Na+].[Na+].[Na+] [4,4'-{Ureylenebis[(2-sulfo-4,1-phenylenecarbonyl)imino]}-di-1,6-naphthalenedisulfonic acid hexasodium salt] | N | +5 Wells | N |  |  |  | change in vivo at 200 mg/kg (whole complement; [3]): -3%; change in vivo at 200 mg/kg (whole complement; [4]): -4%; change in vivo at 200 mg/kg (whole complement; [5]): 6% |
| O=C(Nc1ccc(C(=O)Nc2cc(S(=O)(=O)[O-])cc3ccc(S(=O)(=O)[O-])cc23)c(S(=O)(=O)[O-])c1)Nc1ccc(C(=O)Nc2cc(S(=O)(=O)[O-])cc3ccc(S(=O)(=O)[O-])cc23)c(S(=O)(=O)[O-])c1.[Na+].[Na+].[Na+].[Na+].[Na+].[Na+] [4,4'-{Ureylenebis[(2-sulfo-4,1-phenylenecarbonyl)imino]}-di-2,6-naphthalenedisulfonic acid hexasodium salt] | N | +5 Wells | N |  |  |  | change in vivo at 200 mg/kg (whole complement; [3]): -3%; change in vivo at 200 mg/kg (whole complement; [4]): -4%; change in vivo at 200 mg/kg (whole complement; [5]): -11% |
| O=C(Nc1cc(C(=O)O)cc(C(=O)Nc2cc(S(=O)(=O)O)cc3cc(S(=O)(=O)O)cc(S(=O)(=O)O)c23)c1)Nc1cc(C(=O)O)cc(C(=O)Nc2cc(S(=O)(=O)O)cc3cc(S(=O)(=O)O)cc(S(=O)(=O)O)c23)c1 [5,5'-Ureylenebis[N-(3,6,8-trisulfo-1-naphthyl)]isophthalamic acid octasodium salt] | N | +10 Wells | +2 Wells | -37 | -42 | -48 | In Vivo Activity (Guinea Pig) % Inhibition Intravenous 2 mins. (whole complement; intravenous, 200 mg/kg, 2 mins.): -92%; In Vivo Activity (Guinea Pig) % Inhibition Intravenous 30 mins. (whole complement; intravenous, 200 mg/kg, 30 mins.): -44%; In Vivo Activity (Guinea Pig) % Inhibition Intravenous 120 mins. (whole complement; intravenous, 200 mg/kg, 120 mins.): -39% |
| COC(=O)c1cc(NC(=O)Nc2cc(C(=O)Nc3ccc(S(=O)(=O)O)c4cc(S(=O)(=O)O)cc(S(=O)(=O)O)c34)cc(C(=O)OC)c2)cc(C(=O)Nc2ccc(S(=O)(=O)O)c3cc(S(=O)(=O)O)cc(S(=O)(=O)O)c23)c1 [5,5'-Ureylenebis[N-(4,6,8-trisulfo-1-naphthyl)isophthalamic acid]dimethyl ester hexasodium salt] | +1 Wells | +4 Wells | +1 Wells | -14 | -17 | -25 |  |
| O=C(Nc1cc(C(=O)O)cc(C(=O)Nc2ccc(S(=O)(=O)O)c3cc(S(=O)(=O)O)cc(S(=O)(=O)O)c23)c1)Nc1cc(C(=O)O)cc(C(=O)Nc2ccc(S(=O)(=O)O)c3cc(S(=O)(=O)O)cc(S(=O)(=O)O)c23)c1 [5,5'-Ureylenebis[N-(4,6,8-trisulfo-1-naphthyl)isophthalamic acid]octasodiumsalt] | +1 Wells | +5 Wells | +2 Wells | -40 | -49 | -71 |  |
| CC(=O)Nc1ccc2c(S(=O)(=O)O)cc(S(=O)(=O)O)cc2c1NC(=O)c1ccc(NC(=O)Nc2ccc(C(=O)Nc3c(NC(C)=O)ccc4c(S(=O)(=O)O)cc(S(=O)(=O)O)cc34)c(S(=O)(=O)O)c2)cc1S(=O)(=O)O [5,5'-[Ureylenebis(2-sulfo-1,4-phenylenecarbonylimino)]bis[6-acetamido-1,3-naphthalenedisulfonic acid]hexasodium salt] | N | +8 Wells | +1 Wells | -19 | 8 | 4 |  |
| O=C(Nc1ccc(C(=O)Nc2cc(S(=O)(=O)O)cc3cccc(S(=O)(=O)O)c23)c(S(=O)(=O)O)c1)Nc1ccc(C(=O)Nc2cc(S(=O)(=O)O)cc3cccc(S(=O)(=O)O)c23)c(S(=O)(=O)O)c1 [8,8'-[Ureylenebis(2-sulfo-4,1-phenylenecarbonyl)imino]di-1,6-naphthalenedisulfonic acid hexasodium salt] | +1 Wells | +5 Wells | +1 Wells | -10 | -18 | -31 |  |
| Cc1ccc(C(=O)Nc2ccc(S(=O)(=O)O)c3cc(S(=O)(=O)O)cc(S(=O)(=O)O)c23)cc1NC(=O)c1cccc(NC(=O)Nc2cccc(C(=O)Nc3cc(C(=O)Nc4ccc(S(=O)(=O)O)c5cc(S(=O)(=O)O)cc(S(=O)(=O)O)c45)ccc3C)c2)c1 [Suramin] |  |  |  |  |  |  | inhibition of the complement system (complement system; Clin. Exp. Immunol., 10, 127-138 (1972)): competitive inhibitor of the complement system |
| Nc1ccc2cc(S(=O)(=O)O)cc(O)c2c1N=Nc1ccc(NC(=O)Nc2ccc(N=Nc3c(N)ccc4cc(S(=O)(=O)O)cc(O)c34)c(S(=O)(=O)O)c2)cc1S(=O)(=O)O [chlorazol fast pink, 3,3'-ureylenebis-[6-(2-amino-8-hydroxy-6-sulfo-1-naphthylazo)]benzenesulfonic acid, tetrasodium salt] |  |  |  |  |  |  | anticomplementary effect (complement system): anticomplementary effect |
| NCCCCCC(=O)O [epsilon-aminocaproic acid] |  |  |  |  |  |  | treatment of hereditary angioneurotic edema [2]: used with success |
| NC[C@H]1CC[C@H](C(=O)O)CC1 [tranexamic acid] |  |  |  |  |  |  | treatment of hereditary angioneurotic edema [2]: used with success |
| heparin |  |  |  |  |  |  | anticomplementary effect (complement system): anticomplementary effect |
